The record followed here is patent US20240165164A1, “STEM CELLS FOR USE IN REDUCING THE IMMUNE RESPONSE FOLLOWING ORGAN TRANSPLANTATION” (Amniotics AB, priority 2021, published 2024).

Assay [1] concerns human Peripheral Blood Mononuclear Cells (PBMCs). Kind of assay: PBMC co-culture: cell composition after 24 hours of activation (FACS analysis). On the procedure:
(§1) Freshly isolated human PBMCs, pooled from three donors, were activated with anti-CD3/anti-CD28 at 10 μg/ml and 5 μg/ml respectively in presence of MSCs ex vivo for 24 or 72 hours. Following activation, cells were analysed for effects on cellular composition after 24 hours and for effects on cellular composition and cell proliferation using CFSE after 72 hours. In addition, supernatants collected after 24 hours of activation were analysed for cytokine levels using Luminex.
(§2) Peripheral Blood Mononuclear Cells (PBMCs) were isolated from leucocyte concentrate from three different donors (acquired from Blodcentralen, Lunds Universitetssjukhus, Lund, Sweden) through gradient centrifugation at 400×g for 40 minutes using Ficoll. Red blood cells (RBCs) were lysed using BD Pharmlyse buffer 10× diluted in milliQ water for 3 minutes at room temperature (RT). Cells were washed and the isolated PBMCs were pooled. Cell concentration was determined using a Scepter cell counter (Millipore Merck, MA. USA). Cells were diluted to 1×10^7 cells/ml in PBS. Pooled PBMCs were split into 2 different tubes. Cells in tube 1 was stained with CFSE at 5 µM for 5 minutes (dark, RT). CFSE stained cells were washed with an equal volume of FBS to stop the reaction and washed again with PBS. Cells in tube two was left in PBS.
(§3) MSCs (donor 1, donor 2, donor 3, and AD-MSC control cells) were provided in 8 different tubes, two for each cell type (in different medias (M3 and M4). All cells (PBMCs and MSCs) were diluted in the two different cell culture media (M3 and M4) to a final concentration of 2*10^6 cells/ml. Media was supplemented with anti-CD28 at 5 μg/ml. Cells were added to anti-CD3 (1 μg/well, 100 μl/well) coated U bottom cell culture plates according to the layout below, 200 μl/well in different PBMC:MSC ratios (1:10, 1:5, 1:2.5, 1:0 and 0:1) with a total amount of cells at 4*10^5 cells/well.
(§4) When plating controls, cells were spun down and diluted in M3 or M4 at 4*10^6 cells/ml, with a total amount of cells at 4*10^5 cells/well. 100 μl PBMCs were added per well. […] Medium was added to unstimulated control wells (700 μl/well). Cells were incubated for 24 or 72 hours at 37° C., 5% CO2. See also FIG. 28.
Following 24 hours of incubation, cells in FACS/Luminex plates were stained with antibodies detecting CD73, CD4, CD8, CD80, CD206, CD163 and PD-1 in staining buffer (PBS supplemented with 1% BSA). Briefly, cells were transferred to V bottom plates and centrifuged at 360×g for 2 min. Supernatant was transferred to a storage plate and put in −20° C. until analysis using Luminex. Cells were washed in PBS, centrifuged at 360×g for 2 min at 4° C. Supernatant was flicked off and antibodies against surface markers were added. Cells were incubated at +4° C. for 20 minutes (dark). After incubation, cells were washed 1× in PBS, centrifuged at 360×g for 2 min at 4° C. Cells were resuspended in PBS and acquired using the Attune Nxt flow cytometer. Compensation was performed using beads—AbC Total Compensation capture beads and negative beads. Since compensation was done using beads, FSC and SSC were changed before analysing samples and adjusted to cells. Lasers were not changed after compensation. 150 μl was analysed from each sample.

For assay [2] the test system is unchanged. Put plainly: PBMC co-culture: proliferation and cell composition after 72 hours of activation (FACS analysis after CFSE labeling). The protocol:
as §1, §2, §3, §4
After 72 hours of incubation, CFSE stained cells were stained with CD4, CD8, CD80, CD206 and CD163 in staining buffer. Briefly, cells were transferred to V bottom plates, centrifuged at 360×g for 2 min. Cells were washed in PBS, centrifuged at 360×g for 2 min at 4° C. Supernatant was flicked off and surface markers were added. Cells were incubated at +4° C. for 20 minutes. After incubation, cells were washed 1× in PBS, centrifuged at 360×g for 2 min at 4° C. Cells were resuspended in PBS and acquired using the Attune Nxt flow cytometer. Compensation was performed using beads—AbC Total Compensation capture beads and negative beads for surface markers. For CFSE compensation, newly CFSE stained cells were used. Since compensation was done using both beads and cells, FSC and SSC were changed and adjusted to beads or cells. Lasers were not changed after compensation.
Graphs were performed using Prism 8 for Mac OS X (GraphPad Software, San Diego, CA, USA). Results are presented as mean values±SEM, if not otherwise stated. Dot plots were acquired from analysis using FlowJo v10.6.1 for Mac (BD, New Jersey, USA). The inhibitory effect of MSCs on PBMC proliferation was calculated according to the two formulas below: […]

Assay [3] shares this test system. Put plainly: PBMC co-culture: cytokine analysis after 24 hours of activation (Luminex). Type of assay: cell-based. On the procedure: 100 μl PBMCs were added per well. […] See also FIG. 28.
Supernatant (24 hours incubation) was analysed for cytokines using the 12-plex LXSAHM-12 Luminex kit. All reagents, standard and samples were prepared at room temperature and according to manufacturer's instruction. Briefly, 50 μl of standard or sample was added to wells. Microparticles were added to samples and standard and samples were incubated for 2 hours at room temperature on a horizontal orbital shaker (800 rpm). Plate was washed 3× in washing buffer using a magnetic plate. Biotin-antibody was added and incubated dark for 1 hour at room temperature on a horizontal orbital shaker (800 rpm). Plate was washed 3× in washing buffer using a magnetic plate. Streptavidin-PE was added to each well and incubated dark at room temperature on a horizontal orbital shaker (800 rpm) for 30 minutes. Plate was washed 3× in washing buffer using a magnetic plate. Microparticles were resuspended in 100 μl washing buffer, incubated for 2 minutes on a horizontal orbital shaker (800 rpm). Samples were analysed on a Bio-Rad Luminex analyzer.

The mark [4] stands for this setting: CsA 10 μg/ml, Prednisolone 125 nM.
The mark [5] stands for this setting: stimulated PBMCs, media 3, MSCs at all ratios, CsA 10 μg/ml, Prednisolone 125 nM.

As to `C[C@]12C=CC(=O)C=C1CC[C@@H]1[C@@H]2[C@@H](O)C[C@@]2(C)[C@H]1CC[C@]2(O)C(=O)CO` [Prednisolone], in assay [1] (setting [4]), the M2 macrophage expression entry is on record as “no effect”, the T cell activation result was “only slightly inhibits” and the “expression level of M1 macrophages” value is listed as “no effect”. In assay [1] (Prednisolone 125 nM), the macrophage cell composition entry is given as “did not have an effect”. For the same compound, in assay [1] (aCD3/aCD28 activated PBMCs, media 3, unsorted MSCs at PBMC:MSC 1:2.5, 1:5, 1:10, Prednisolone 125 nM, vs control), the “T helper cells (% CD4+ lymphocytes or MFI of CD4+ lymphocytes)” value is “higher levels”. For the same compound, in assay [2] (72 hours), the M1 expression levels result is listed as “no effect”, the “M1 proliferation (CFSE)” value was “No effect”, the M2 expression levels entry was “no effect” and the “M2 proliferation (CFSE)” value is listed as “No effect”. Further, the “T helper cells (% CD4+ among T cells)” value in assay [2] (72 hours of incubation, unsorted MSCs co-culture, CsA 10 μg/ml, Prednisolone 125 nM) is listed as “no effect”. Also, in assay [3] (12-plex cytokines not listed as inhibited), the “the other analysed cytokines, levels in supernatant” value is “No inhibitory effect”. The “IL-6 levels in supernatant” value in assay [3] (setting [4]) is listed as “inhibits”. Moreover, in assay [3] (setting [5]), the “IL12/IL23p40 levels in supernatant” value is recorded as “inhibits” and the “TNF-α levels in supernatant” value is reported as “inhibits”. Also, in assay [3] (stimulated PBMCs, media 3, PBMC:MSC 1:2.5, 1:5, 1:10, CsA 10 μg/ml, Prednisolone 125 nM), the “HGF levels in supernatant” value is “inhibits”.
